Measurements: patent US20170290814A1, “METHODS OF TREATMENT OF CHOLESTASIS AND FIBROSIS” (GENFIT, priority 2016, published 2017)
“Also recorded” adds a separate entry of the source.

Test system: TGFβ1-induced expression of α-SMA protein in human HSC
Test: α-SMA ELISA in TGFβ1-activated human hepatic stellate cells
Format: cell-based
Conditions: TGFβ1 1 ng/ml, 48 h
Protocol: Serum-deprived HSC were preincubated for 1 hour with RM-5061 before the activation with the profibrogenic cytokine TGFβ1 (1 ng/ml). After 48 hours of incubation, the α-SMA content was measured by ELISA. The obtained values were transformed into percentage inhibition over TGFβ1 control. Data are presented as mean (quadruplicates)±standard error of the mean (SEM). Statistical analyses were performed by one-way ANOVA followed by Bonferroni post-hoc tests, using Sigma Plot 11.0 software. [*: p<0.05; **: p<0.01; ***: p<0.001 (comparison versus TGFβ1 1 ng/mL group)]. The curve fitting and the calculation of half maximal inhibitory concentration (IC50) were performed with XLFit software 5.3.1.3.
Serum-deprived HSC were preincubated for 1 hour with Cpd.5 before the activation with the profibrogenic cytokine TGFβ1 (1 ng/ml). After 48 hours of incubation, the expression of α-SMA was measured by ELISA. The obtained values were transformed into percentage inhibition over TGFβ1 control. Data are presented as mean (triplicates)±standard deviation (SD). Statistical analyses were performed by one-way ANOVA followed by Bonferroni post-hoc tests, using Sigma Plot 11.0 software. [*: p<0.05; **: p<0.01; ***: p<0.001 (comparison versus TGFμ1 1 ng/mL group)]. The curve fitting and the calculation of half maximal inhibitory concentration (IC50) were performed with XLFit software 5.3.1.3.
The human primary hepatic stellate cells (hHSC) (Innoprot) were cultured in STeCM medium (ScienCell cat #5301) that was supplemented with 2% fetal bovine serum (FBS, ScienCell cat #0010), 1% penicillin/streptomycin (ScienCell cat #0503) and stellate cell growth supplement (SteCGS; ScienCell cat #5352). Cell culture flasks were coated with Poly-L Lysine (Sigma cat #P4707) for a better adherence.
The human primary hepatic stellate cells (hHSC) (Innoprot) were cultured under standard conditions, as described above. The cells were subsequently plated at a density of 2×10^4cells/well or 6,5×10^3 cells/well into 96-well or 384-well plates respectively. The next day, cell-culture medium was removed, and cells were washed with PBS (Invitrogen cat #14190). Then, hHSC were deprived for 24 hours in serum-free and SteCGS-free medium. For the treatments with compounds of formula (I), the serum-deprived hHSC were preincubated for 1 hour with the compounds followed by addition of the profibrogenic stimuli TGFβ1 (PeproTech cat #100-21, 1 ng/mL) in serum-free and SteCGS-free medium for an additional 48 hour period. At the end of treatment, the cell culture supernatants of treated-HSC were transferred into a new plate before storage at −20° C.The cells were washed with PBS (Invitrogen, cat #14190) before the addition of lysis buffer (CelLytic™ MT reagent; Sigma #C3228). Plates were then incubated for 30 min on ice using a plate shaker, before storage at −20° C.
The level of α-SMA was measured using a Sandwich ELISA. Briefly, the wells of an ELISA plate were first coated with the capture antibody (mouse monoclonal anti-ACTA2, Abnova) at 4° C. overnight. After 3 washes in PBS +0.2% Tween 20, a blocking solution consisting of PBS +0.2% BSA was added for one hour followed by another washing cycle. The cell lysates were transferred into the wells for binding to the capture antibody for a period of 2 h at room temperature. After the washing procedure, the detection antibody (biotinylated mouse monoclonal anti-ACTA2, Abnova) was added for 2 hours at room temperature followed by 3 washes. For the detection, an HRP-conjugated Streptavidin (R&D Systems cat #DY998) was first applied for 30 min at room temperature. After washing, the HRP substrate TMB (;BD, #555214) was added and incubated for 7 min at room temperature in the dark. Upon oxidation, TMB forms a water-soluble blue reaction product that becomes yellow with addition of sulfuric acid (solution stop), enabling accurate measurement of the intensity at 450 nm using a spectrophotometer. […]

| Compound | Max % I Over TGFβ, αSMA [%] | effect on TGFβ1-induced α-SMA level in human HSC |
| --- | --- | --- |
| CC(C)(C)[C@H](N)C(=O)Oc1ccccc1C(=O)Nc1ncc([N+](=O)[O-])s1 [RM-5061, (S)-2-(5-nitrothiazol-2-ylcarbamoyl)phenyl 2-amino-3,3-dimethylbutanoate] | 40 | dose-dependently reduced; also recorded: inhibits |
| [2H]C([2H])([2H])C(=O)Oc1ccccc1C(=O)Nc1ncc([N+](=O)[O-])s1 [Cpd.5, 2-[(5-nitro-1,3-thiazol-2-yl)carbamoyl]phenyl (d3)ethanoate] | – | inhibits |
